Counter-ions that a name gives are not always drawn.
Biological target: T1, BRD4 BD2 (Homo sapiens, UniProt O60885, Y97A)
T1 construct: BRD4 (1-477) (Y97A) and (Y390A); made in house; host or cells: E. coli (pET15b vector)
Experiment: BRD4 BD2 mutant TR-FRET competition assay
Format: binding
Conditions: average of N recorded values, read-out: BRD4 BD2 IC50 (average value) (converted)

Row | IC50 [nM] | SMILES
1 | 31.6 | CNC(=O)c1cc(C(=O)NCCCC2CCNCC2)cn(Cc2ccccc2)c1=O [Example 6a, 1-Benzyl-N^3-methyl-2-oxo-N^5-(3-(piperidin-4-yl)propyl)-1,2-dihydropyridine-3,5-dicarboxamide]
2 | 31.6 | CNC(=O)c1cc(C(=O)NCCCC2CCN(C)CC2)cn(Cc2ccccc2)c1=O [Example 7, 1-Benzyl-N^3-methyl-N^5-(3-(1-methylpiperidin-4-yl)propyl)-2-oxo-1,2-dihydropyridine-3,5-dicarboxamide]
3 | 50.1 | CNC(=O)c1cc(C(=O)NCCCC2CCNCC2)cn(Cc2cccc(OCCO)c2)c1=O [Example 23, 1-(3-(2-Hydroxyethoxy)benzyl)-N^3-methyl-2-oxo-N^5-(3-(piperidin-4-yl)propyl)-1,2-dihydropyridine-3,5-dicarboxamide]
4 | 39.8 | CNC(=O)c1cc(C(=O)NCCCC2CCN(CCO)CC2)cn(Cc2ccccc2)c1=O [Example 25]
5 | 25.1 | CNC(=O)c1cc(C(=O)NCCCC2CCN(CCF)CC2)cn(Cc2ccccc2)c1=O [Example 29, 1-Benzyl-N^5-(3-(1-(2-fluoroethyl)piperidin-4-yl)propyl)-N^3-methyl-2-oxo-1,2-dihydropyridine-3,5-dicarboxamide. formic acid salt]
6 | 10 | CNC(=O)c1cc(C(=O)NCCCC2CCNCC2)cn(Cc2cccc3[nH]ccc23)c1=O [Example 30, 1-((1H-Indol-4-yl)methyl)-N^3-methyl-2-oxo-N^5-(3-(piperidin-4-yl)propyl)-1,2-dihydropyridine-3,5-dicarboxamide]

Same assay, conditions: read-out: pIC50 in the BRD4 BD2 assay (converted)

Row | IC50 [nM] | SMILES
7 | ≤ 100 | CNC(=O)c1cc(C(=O)NCCC2CCNCC2)cn(Cc2ccccc2)c1=O [Example 2, 1-Benzyl-N^3-methyl-2-oxo-N^5-(2-(piperidin-4-yl)ethyl)-1,2-dihydropyridine-3,5-dicarboxamide]
8 | ≤ 100 | CNC(=O)c1cc(C(=O)NCCCC2CCNCC2)cn(Cc2ccccc2)c1=O [Example 6a, 1-Benzyl-N^3-methyl-2-oxo-N^5-(3-(piperidin-4-yl)propyl)-1,2-dihydropyridine-3,5-dicarboxamide]
9 | ≤ 100 | CNC(=O)c1cc(C(=O)NCCCC2CCN(C)CC2)cn(Cc2ccccc2)c1=O [Example 7, 1-Benzyl-N^3-methyl-N^5-(3-(1-methylpiperidin-4-yl)propyl)-2-oxo-1,2-dihydropyridine-3,5-dicarboxamide]
10 | ≤ 100 | CCN1CCC(CCCNC(=O)c2cc(C(=O)NC)c(=O)n(Cc3ccccc3)c2)CC1 [Example 11, 1-Benzyl-N^5-(3-(1-ethylpiperidin-4-yl)propyl)-N^3-methyl-2-oxo-1,2-dihydropyridine-3,5-dicarboxamide]
11 | ≤ 100 | CNC(=O)c1cc(C(=O)NCCCC2CCNCC2)cn(Cc2ccccc2F)c1=O [Example 14, 1-(2-Fluorobenzyl)-N^3-methyl-2-oxo-N^5-(3-(piperidin-4-yl)propyl)-1,2-dihydropyridine-3,5-dicarboxamide]
12 | ≤ 100 | CNC(=O)c1cc(C(=O)NCCCC2CCNCC2)cn(Cc2cccc(C)c2)c1=O [Example 15, N^3-Methyl-1-(3-methylbenzyl)-2-oxo-N^5-(3-(piperidin-4-yl)propyl)-1,2-dihydropyridine-3,5-dicarboxamide]
13 | ≤ 100 | CNC(=O)c1cc(C(=O)NCCC2CCNCC2)cn(Cc2cccc(C)c2)c1=O [Example 16, N^3-Methyl-1-(3-methylbenzyl)-2-oxo-N^5-(2-(piperidin-4-yl)ethyl)-1,2-dihydropyridine-3,5-dicarboxamide]
14 | ≤ 100 | CNC(=O)c1cc(C(=O)NCCCC2CCNCC2)cn([C@H](C)c2ccccc2)c1=O [Example 17, (R)-N^3-Methyl-2-oxo-1-(1-phenylethyl)-N^5-(3-(piperidin-4-yl)propyl)-1,2-dihydropyridine-3,5-dicarboxamide]
15 | ≤ 100 | CNC(=O)c1cc(C(=O)NCCCC2CCNCC2)cn(Cc2cccc(OC)c2)c1=O [Example 19, 1-(3-Methoxybenzyl)-N^3-methyl-2-oxo-N^5-(3-(piperidin-4-yl)propyl)-1,2-dihydropyridine-3,5-dicarboxamide]
16 | 100 to 1000 | CNC(=O)c1cc(C(=O)NCCC2CCNCC2)cn(Cc2cccc(OC)c2)c1=O [Example 20, 1-(3-Methoxybenzyl)-N^3-methyl-2-oxo-N^5-(2-(piperidin-4-yl)ethyl)-1,2-dihydropyridine-3,5-dicarboxamide]
17 | ≤ 100 | CNC(=O)c1cc(C(=O)NCCCC2CCNCC2)cn(Cc2ccc(F)c(C)c2)c1=O [Example 21, 1-(4-Fluoro-3-methylbenzyl)-N^3-methyl-2-oxo-N^5-(3-(piperidin-4-yl)propyl)-1,2-dihydropyridine-3,5-dicarboxamide]
18 | ≤ 100 | CNC(=O)c1cc(C(=O)NCCCC2CCNCC2)cn(Cc2ccc(F)cc2)c1=O [Example 22, 1-(4-Fluorobenzyl)-N^3-methyl-2-oxo-N-(3-(piperidin-4-1)propyl)-1,2-dihydropyridine-3,5-dicarboxamide]
19 | ≤ 100 | CNC(=O)c1cc(C(=O)NCCCC2CCNCC2)cn(Cc2cccc(OCCO)c2)c1=O [Example 23, 1-(3-(2-Hydroxyethoxy)benzyl)-N^3-methyl-2-oxo-N^5-(3-(piperidin-4-yl)propyl)-1,2-dihydropyridine-3,5-dicarboxamide]
20 | ≤ 100 | CNC(=O)c1cc(C(=O)NCCC2CCNCC2)cn(Cc2cccc(OCCO)c2)c1=O [Example 24, 1-(3-(2-Hydroxyethoxy)benzyl)-N^3-methyl-2-oxo-N^5-(2-(piperidin-4-yl)ethyl)-1,2-dihydropyridine-3,5-dicarboxamide]
21 | ≤ 100 | CNC(=O)c1cc(C(=O)NCCCC2CCN(CCO)CC2)cn(Cc2ccccc2)c1=O [Example 25]
22 | ≤ 100 | CNC(=O)c1cc(C(=O)NCCCC2CCNCC2)cn(Cc2cccc(C)c2F)c1=O [Example 26, 1-(2-Fluoro-3-methylbenzyl)-N^3-methyl-2-oxo-N^5-(3-(piperidin-4-yl)propyl)-1,2-dihydropyridine-3,5-dicarboxamide]
23 | 100 to 1000 | CNC(=O)c1cc(C(=O)NCCC2CCNCC2)cn(Cc2cccc(C)c2F)c1=O [Example 27, 1-(2-Fluoro-3-methylbenzyl)-N^3-methyl-2-oxo-N^5-(2-(piperidin-4-yl)ethyl)-1,2-dihydropyridine-3,5-dicarboxamide]
24 | ≤ 100 | CNC(=O)c1cc(C(=O)NCCCC2CCNCC2)cn(Cc2cccc3[nH]ccc23)c1=O [Example 30, 1-((1H-Indol-4-yl)methyl)-N^3-methyl-2-oxo-N^5-(3-(piperidin-4-yl)propyl)-1,2-dihydropyridine-3,5-dicarboxamide]

Second part, the compound before the results:

Row | SMILES | IC50 [nM]
25 | CNC(=O)c1cc(C(=O)NCCC2CCN(C)CC2)cn(Cc2ccccc2)c1=O [Example 3, 1-Benzyl-N^3-methyl-N^5-(2-(1-methylpiperidin-4-yl)ethyl)-2-oxo-1,2-dihydropyridine-3,5-dicarboxamide] | ≤ 100
26 | CNC(=O)c1cc(C(=O)NC2CN(C(=O)OC(C)(C)C)C2)cn(Cc2ccccc2)c1=O [Example 4, tert-Butyl 3-(1-benzyl-5-(methylcarbamoyl)-6-oxo-1,6-dihydropyridine-3-carboxamido)azetidine-1-carboxylate] | 100 to 1000
27 | CNC(=O)c1cc(C(=O)NCCCC2CCN(C(=O)OC(C)(C)C)CC2)cn(Cc2ccccc2)c1=O [Example 5] | 100 to 1000
28 | CNC(=O)c1cc(C(=O)NCCCC2CCN(C(C)=O)CC2)cn(Cc2ccccc2)c1=O [Example 8, N^5-(3-(1-Acetylpiperidin-4-yl)propyl)-1-benzyl-N^3-methyl-2-oxo-1,2-dihydropyridine-3,5-dicarboxamide] | 100 to 1000
29 | CNC(=O)c1cc(C(=O)NCCC2CCOC2)cn(Cc2ccccc2)c1=O (stereo not shown) [Example 9, 1-Benzyl-N^3-methyl-2-oxo-N^5-(2-(tetrahydrofuran-3-yl)ethyl)-1,2-dihydropyridine-3,5-dicarboxamide] | 100 to 1000
30 | CNC(=O)c1cc(C(=O)NCCCC2CCN(CC(F)(F)F)CC2)cn(Cc2ccccc2)c1=O [Example 10] | ≤ 100
31 | CNC(=O)c1cc(C(=O)NCCCN2CCNCC2)cn(Cc2ccccc2)c1=O [Example 12, 1-Benzyl-N^3-methyl-2-oxo-N^5-(3-(piperazin-1-yl)propyl)-1,2-dihydropyridine-3,5-dicarboxamide, hydrochloride] | ≤ 100
32 | CNC(=O)c1cc(C(=O)NCCC2CCS(=O)(=O)CC2)cn(Cc2ccccc2)c1=O [Example 13, 1-Benzyl-N^5-(2-(1,1-dioxidotetrahydro-2H-thiopyran-4-yl)ethyl)-N^3-methyl-2-oxo-1,2-dihydropyridine-3,5-dicarboxamide] | 100 to 1000
33 | CNC(=O)c1cc(C(=O)NCCC2CCNCC2)cn([C@H](C)c2ccccc2)c1=O [Example 18, (R)-N^3-Methyl-2-oxo-1-(1-phenylethyl)-N^5-(2-(piperidin-4-yl)ethyl)-1,2-dihydropyridine-3,5-dicarboxamide] | ≤ 100
34 | CNC(=O)c1cc(C(=O)NCCCC2CCN(CC(F)F)CC2)cn(Cc2ccccc2)c1=O [Example 28] | ≤ 100
35 | CNC(=O)c1cc(C(=O)NCCCC2CCN(CCF)CC2)cn(Cc2ccccc2)c1=O [Example 29, 1-Benzyl-N^5-(3-(1-(2-fluoroethyl)piperidin-4-yl)propyl)-N^3-methyl-2-oxo-1,2-dihydropyridine-3,5-dicarboxamide. formic acid salt] | ≤ 100
36 | CNC(=O)c1cc(C(=O)NCCC2CCCOC2)cn(Cc2ccccc2)c1=O (stereo not shown) [Example 31, 1-Benzyl-N^3-methyl-2-oxo-N^5-(2-(tetrahydro-2H-pyran-3-yl)ethyl)-1,2-dihydropyridine-3,5-dicarboxamide] | 100 to 1000
37 | CNC(=O)c1cc(C(=O)NCCC2CCN(C(=O)OC(C)(C)C)CC2)cn(Cc2ccccc2)c1=O [Example 32, tert-Butyl 4-(2-(1-benzyl-5-(methylcarbamoyl)-6-oxo-1,6-dihydropyridine-3-carboxamido)ethyl)piperidine-1-carboxylate] | 100 to 1000
38 | CNC(=O)c1cc(C(=O)NC2CNC2)cn(Cc2ccccc2)c1=O [Example 33, N^5-(Azetidin-3-l)-1-benzyl-N^3-methyl-2-oxo-1,2-dihydropyridine-3,5-dicarboxamide] | 100 to 1000
39 | CNC(=O)c1cc(C(=O)NC2CN(C)C2)cn(Cc2ccccc2)c1=O [Example 34, 1-Benzyl-N^3-methyl-N^5-(1-methylazetidin-3-yl)-2-oxo-1,2-dihdyropyridine-3,5-dicarboxamide] | 1000 to 100000
40 | CNC(=O)c1cc(C(=O)NC2CC3OCCCC23)cn(Cc2ccccc2)c1=O (stereo not shown) [Example 35, 1-Benzyl-N^5-(2-oxabicyclo[4.2.0]octan-7-yl)-N^3-methyl-2-oxo-1,2-dihydropyridine-3,5-dicarboxamide] | 1000 to 100000
41 | CNC(=O)c1cc(C(=O)NCCC2CCN(C)C2)cn(Cc2ccccc2)c1=O (stereo not shown) [Example 36, 1-Benzyl-N^3-methyl-N^5-(2-(1-methylpyrrolidin-3-yl)ethyl)-2-oxo-1,2-dihydropyridine-3,5-dicarboxamide] | 100 to 1000
42 | CNC(=O)c1cc(C(=O)NCCCN2CCOCC2)cn(Cc2ccccc2)c1=O [Example 37, 1-Benzyl-N^3-methyl-N^5-(3-morpholinopropyl)-2-oxo-1,2-dihydropyridine-3,5-dicarboxamide] | 100 to 1000
43 | CNC(=O)c1cc(C(=O)NCCC2CCCN(C(=O)OC(C)(C)C)C2)cn(Cc2ccccc2)c1=O (stereo not shown) [Example 38, tert-Butyl 3-(2-(1-benzyl-5-(methylcarbamoyl)-6-oxo-1,6-dihydropyridine-3-carboxamido)ethyl)piperidine-1-carbxylate] | 1000 to 100000

Reference: US10370356B2, “Pyridinone dicarboxamide for use as bromodomain inhibitors” (GlaxoSmithKline Intellectual Property (No. 2) Limited, priority 2015, dated 2019)
